Reference: ChEMBL document CHEMBL1123160, “(1-Amino-2-propenyl) phosphonic acid, an inhibitor of alanine racemase and D-alanine:D-alanine ligase” (J Med Chem, 1986)

What was measured:
Enterococcus faecalis = assay: (§1) The compound was tested for the inhibition of D-alanine:D-alanine ligase from streptococcus faecalis
[1] = as §1; design: species or system Enterococcus faecalis

Structure (SMILES): C=CC(N)P(=O)(O)O (configuration not stated)
- Km (Enterococcus faecalis): 7 mM
- Ki [1]: 5 mM
